Experimental data reported in patent US8178658B2 (Dow AgroSciences, LLC, priority 2008, dated 2012).

Experiments:
[1] = system: beet armyworm (BAW; Spodoptera exigua: Lepidoptera); assay: 128-well diet tray assay on beet armyworm (BAW 50); type: in vivo; conditions: for BAW 50 ug/cm2: 128-well diet tray assay, 50 μg/cm^2 of test compound on diet, second instar BAW larvae, mortality class; for pest or weed control at 50 µg/cm2, 50 µg/cm2: Spodoptera exigua, 144 h, read-out: BAW 50 ug/cm2
In short: (§1)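 Mortality is the read-out for both formats, scored against a 50% cut-off. Microplate wells received eggs over diet carrying 12 μg test compound, kept in darkness at 29° C for 6 d, six replicates averaged. Diet-tray wells held second instar larvae on diet at 50 μg/cm^2, kept 6 d at 25° C under 14:10 photoperiod.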

[2] = system: beet armyworm (BAW; Spodoptera exigua: Lepidoptera); assay: 96-well microtiter plate-based high throughput (HTS) diet bioassay on beet armyworm (BAW HTS); type: in vivo; conditions: for BAW HTS: BAW eggs, 12 μg test compound per well, mortality at 6 d post-treatment, mortality class; for pest or weed control at 12 µg/well, 12 µg/well: Spodoptera exigua, 144 h, read-out: BAW HTS
In short: as §1

[3] = 96-well microtiter plate HTS diet assay

| SMILES | BAW 50 ug/cm2 [1] | BAW HTS ([2]; 96-well HTS diet assay) | BAW HTS [2, 3] | pest or weed control at 50 µg/cm2, 50 µg/cm2 [1] [%] | pest or weed control at 12 µg/well, 12 µg/well [2] [%] |
| --- | --- | --- | --- | --- | --- |
| CCCCO[C@@H]1[C@@H](OC)[C@H](C)O[C@@H](OC(=O)Nc2ccc(-n3cnc(-c4ccc(C(F)(F)F)cc4)n3)cc2)[C@@H]1OC [Compound 198] | A (the compound was tested and at least 50 percent mortality was observed) | A (the compound was tested and at least 50 percent mortality was observed) | A (the compound was tested and at least 50 percent mortality was observed) |  |  |
| CCCCO[C@@H]1[C@@H](OC)[C@H](C)O[C@H](OC(=O)Nc2ccc(-n3cnc(-c4ccc(C(F)(F)F)cc4)n3)cc2)[C@@H]1OC [Compound 199] | A (the compound was tested and at least 50 percent mortality was observed) | A (the compound was tested and at least 50 percent mortality was observed) | A (the compound was tested and at least 50 percent mortality was observed) |  |  |
| CO[C@@H]1[C@@H](OC)[C@H](C)O[C@@H](OC(=O)Nc2ccc(-c3ncn(-c4ccc(OC(F)(F)C(F)(F)F)cc4)n3)cc2)[C@@H]1OC [Compound 200] | A (the compound was tested and at least 50 percent mortality was observed) | A (the compound was tested and at least 50 percent mortality was observed) | A (the compound was tested and at least 50 percent mortality was observed) |  |  |
| CCO[C@@H]1[C@@H](OC)[C@H](C)O[C@@H](OC(=O)Nc2ccc(-c3ncn(-c4ccc(OC(F)(F)C(F)(F)F)cc4)n3)cc2)[C@@H]1OC [Compound 201, {4-[1-(4-pentafluoroethyloxyphenyl)-1H-[1,2,4]triazol-3-yl]-phenyl}-carbamic acid (2S,3R,4R,5S,6S)-4-ethoxy-3,5-dimethoxy-6-methyl-tetrahydropyran-2-yl ester] | A (the compound was tested and at least 50 percent mortality was observed) |  | A (the compound was tested and at least 50 percent mortality was observed) | > 50 | > 50 |
| CCO[C@@H]1[C@@H](OC)[C@H](C)O[C@H](OC(=O)Nc2ccc(-c3ncn(-c4ccc(OC(F)(F)C(F)(F)F)cc4)n3)cc2)[C@@H]1OC [Compound 202, {4-[1-(4-pentafluoroethyloxyphenyl)-1H-[1,2,4]triazol-3-yl]-phenyl}-carbamic acid (2R,3R,4R,5S,6S)-4-ethoxy-3,5-dimethoxy-6-methyl-tetrahydropyran-2-yl ester] | A (the compound was tested and at least 50 percent mortality was observed) |  | A (the compound was tested and at least 50 percent mortality was observed) | > 50 | > 50 |
| CCO[C@@H]1[C@@H](OC)[C@H](C)O[C@@H](OC(=S)Nc2ccc(-c3ncn(-c4ccc(OC(F)(F)C(F)(F)F)cc4)n3)cc2)[C@@H]1OC [Compound 203, {4-[1-(4-pentafluoroethyloxy-phenyl)-1H-[1,2,4]triazol-3-yl]-phenyl}-thiocarbamic acid (2S,3R,4R,5S,6S)-4-ethoxy-3,5-dimethoxy-6-methyl-tetrahydropyran-2-yl ester] | A (the compound was tested and at least 50 percent mortality was observed) |  | A (the compound was tested and at least 50 percent mortality was observed) | > 50 | > 50 |
| C=CCO[C@@H]1[C@@H](OC)[C@H](C)O[C@@H](OC(=O)Nc2ccc(-c3ncn(-c4ccc(OC(F)(F)C(F)(F)F)cc4)n3)cc2)[C@@H]1OC [Compound 204] | A (the compound was tested and at least 50 percent mortality was observed) | A (the compound was tested and at least 50 percent mortality was observed) | A (the compound was tested and at least 50 percent mortality was observed) |  |  |
| C=CCO[C@@H]1[C@@H](OC)[C@H](C)O[C@@H](OC(=O)Nc2ccc(-c3ncn(-c4ccc(OC(F)(F)F)cc4)n3)cc2)[C@@H]1OC [Compound 205] | A (the compound was tested and at least 50 percent mortality was observed) | A (the compound was tested and at least 50 percent mortality was observed) | A (the compound was tested and at least 50 percent mortality was observed) |  |  |
| CCO[C@@H]1[C@@H](OCC)[C@H](C)O[C@@H](OC(=O)Nc2ccc(-c3ncn(-c4ccc(OC(F)(F)C(F)(F)F)cc4)n3)cc2)[C@@H]1OCC [Compound 206] | A (the compound was tested and at least 50 percent mortality was observed) | A (the compound was tested and at least 50 percent mortality was observed) | A (the compound was tested and at least 50 percent mortality was observed) |  |  |
| CCCO[C@@H]1[C@@H](OC)[C@H](C)O[C@@H](OC(=O)Nc2ccc(-c3ncn(-c4ccc(OC(F)(F)C(F)(F)F)cc4)n3)cc2)[C@@H]1OC [Compound 207, {4-[1-(4-pentafluoroethyloxyphenyl)-1H-[1,2,4]triazol-3-yl]-phenyl}-carbamic acid (2S,3R,4R,5S,6S)-4-propoxy-3,5-dimethoxy-6-methyl-tetrahydropyran-2-yl ester] | A (the compound was tested and at least 50 percent mortality was observed) |  | B (either (1) the compound was tested and less than 50 percent mortality was observed or (2) the compound was not tested) | > 50 | < 50 |
| CO[C@@H]1[C@@H](OC)[C@H](C)O[C@H](OC(=O)Nc2ccc(-c3ncn(-c4ccc(OC(F)(F)C(F)(F)F)cc4)n3)cc2)[C@@H]1OC [Compound 208] | A (the compound was tested and at least 50 percent mortality was observed) | A (the compound was tested and at least 50 percent mortality was observed) | A (the compound was tested and at least 50 percent mortality was observed) |  |  |
| CCCO[C@@H]1[C@@H](OC)[C@H](C)O[C@@H](OC(=O)Nc2ccc(-c3ncn(-c4ccc(OC(F)(F)F)cc4)n3)cc2)[C@@H]1OC [Compound 209] | A (the compound was tested and at least 50 percent mortality was observed) | A (the compound was tested and at least 50 percent mortality was observed) | A (the compound was tested and at least 50 percent mortality was observed) |  |  |
| CCO[C@@H]1[C@@H](OC)[C@H](C)O[C@H](OC(=O)Nc2ccc(-c3ncn(-c4ccc(OC(F)(F)F)cc4)n3)cc2)[C@@H]1OC [Compound 210] | A (the compound was tested and at least 50 percent mortality was observed) | A (the compound was tested and at least 50 percent mortality was observed) | A (the compound was tested and at least 50 percent mortality was observed) |  |  |
| CCCO[C@@H]1[C@@H](OC)[C@H](C)O[C@@H](OC(=O)Nc2ccc(-c3ncn(-c4ccc(OC(F)(F)C(F)(F)C(F)(F)F)cc4)n3)cc2)[C@@H]1OC [Compound 216] | A (the compound was tested and at least 50 percent mortality was observed) | A (the compound was tested and at least 50 percent mortality was observed) | A (the compound was tested and at least 50 percent mortality was observed) |  |  |
| CCO[C@@H]1[C@@H](OC)[C@H](C)O[C@@H](OC(=O)Nc2ccc(-c3nc(CC(C)C)n(-c4ccc(OC(F)(F)F)cc4)n3)cc2)[C@@H]1OC [Compound 219] | A (the compound was tested and at least 50 percent mortality was observed) | B (either (1) the compound was tested and less than 50 percent mortality was observed or (2) the compound was not tested) | B (either (1) the compound was tested and less than 50 percent mortality was observed or (2) the compound was not tested) |  |  |
| C=C(C)c1nc(-c2ccc(NC(=O)O[C@@H]3O[C@@H](C)[C@H](OC)[C@@H](OCC)[C@H]3OC)cc2)nn1-c1ccc(OC(F)(F)F)cc1 [Compound 220] | A (the compound was tested and at least 50 percent mortality was observed) | B (either (1) the compound was tested and less than 50 percent mortality was observed or (2) the compound was not tested) | B (either (1) the compound was tested and less than 50 percent mortality was observed or (2) the compound was not tested) |  |  |
| CCO[C@@H]1[C@@H](OC)[C@H](C)O[C@@H](OC(=O)Nc2ccc(-c3nc(CCSC)n(-c4ccc(OC(F)(F)F)cc4)n3)cc2)[C@@H]1OC [Compound 221] | A (the compound was tested and at least 50 percent mortality was observed) | B (either (1) the compound was tested and less than 50 percent mortality was observed or (2) the compound was not tested) | B (either (1) the compound was tested and less than 50 percent mortality was observed or (2) the compound was not tested) |  |  |
| CCO[C@@H]1[C@@H](OC)[C@H](C)O[C@@H](OC(=O)Nc2ccc(-c3nc(C(F)(F)F)n(-c4ccc(OC(F)(F)F)cc4)n3)cc2)[C@@H]1OC [Compound 222] | A (the compound was tested and at least 50 percent mortality was observed) | B (either (1) the compound was tested and less than 50 percent mortality was observed or (2) the compound was not tested) | B (either (1) the compound was tested and less than 50 percent mortality was observed or (2) the compound was not tested) |  |  |
| CCO[C@@H]1[C@@H](OC)[C@H](C)O[C@@H](OC(=O)Nc2ccc(-c3ncn(-c4ccc(OC(F)(F)F)cc4)n3)cc2Br)[C@@H]1OC [Compound 223] | A (the compound was tested and at least 50 percent mortality was observed) | B (either (1) the compound was tested and less than 50 percent mortality was observed or (2) the compound was not tested) | B (either (1) the compound was tested and less than 50 percent mortality was observed or (2) the compound was not tested) |  |  |
